The text below walks through data of ChEMBL document CHEMBL3259815, “Regioselective synthesis of polycyclic aza-oxa and aza-oxa-thia heteroarenes as Colo-205 and HepG2 carcinoma cells growth inhibitors” (Eur J Med Chem, 2014).

The structures appear in SMILES notation. Converted amounts (≈) assume the structure as drawn. The source made the active and inactive calls. The calls are words filed in the database; no cut-off is given here.

A word on the IC50: it is the midpoint of a concentration-inhibition curve. Lower therefore signals greater potency in that assay. The term CC50 denotes the concentration giving 50% cytotoxicity. A high value points to lower toxicity to the cells.

For data set [1], the system named is COLO 205. Nature of the data set: Induction of apoptosis in human COLO205 cells assessed as cleaved PARP level at IC50 after 48 hrs by Western blotting. Format: functional, cell-based.
The test system of data set [2] is COLO 205. Nature of the data set: Induction of apoptosis in human COLO205 cells assessed as decrease of Bcl2 protein expression at IC50 after 48 hrs by Western blotting. Format: functional, cell-based. (In general: Immunoblotting shows a protein as a band on a membrane.)
Data set [3] has as its system COLO 205. As to the kind of experiment: Induction of apoptosis in human COLO205 cells assessed as viable cells at IC50 after 24 hrs using Annexin-V-FITC staining by flow cytometer analysis (reference value: 75.5%). It counts as functional. Background: A flow cytometer gives signals particle by particle.
The test system of data set [4] is COLO 205. As to the kind of experiment: Induction of apoptosis in human COLO205 cells assessed as increase of p53 protein expression at IC50 after 48 hrs by Western blotting. Format: functional, cell-based.
The subject of data set [5] is COLO 205. Nature of the data set: Induction of apoptosis in human COLO205 cells assessed as necrotic cells at IC50 after 24 hrs using Annexin-V-FITC staining by flow cytometer analysis relative to control. Format: functional.
For data set [6], the system named is COLO 205. As to the kind of experiment: Induction of apoptosis in human COLO205 cells assessed as early apoptotic cells at IC50 after 24 hrs using Annexin-V-FITC staining by flow cytometer analysis (reference value: 0.07%). Format: functional.
Data set [7] is described as follows: Cytotoxicity against rat IEC-6 cells assessed as cell viability up to 100 uM after 24 to 48 hrs by MTT assay. It counts as cell-based.
Data set [8] has as its system COLO 205. As to the kind of experiment: Induction of apoptosis in human COLO205 cells assessed as increase of Bax protein expression at IC50 after 48 hrs by Western blotting. It counts as functional, cell-based.
The test system of data set [9] is COLO 205. Nature of the data set: Induction of apoptosis in human COLO205 cells assessed as necrotic cells at IC50 after 48 hrs using Annexin-V-FITC staining by flow cytometer analysis (reference value: 0.5%). It counts as functional.
The test system of data set [10] is COLO 205. Nature of the data set: Induction of apoptosis in human COLO205 cells assessed as viable cells at IC50 after 48 hrs using Annexin-V-FITC staining by flow cytometer analysis (reference value: 65.8%). It counts as functional.
For data set [11], the system named is COLO 205. As to the kind of experiment: Induction of apoptosis in human COLO205 cells assessed as increase of cytochrome-c relase at IC50 after 48 hrs by Western blotting. It counts as functional, cell-based.
Data set [12] relates to COLO 205. Nature of the data set: Induction of apoptosis in human COLO205 cells assessed as cleaved procaspase-3 level at IC50 after 48 hrs by Western blotting. It counts as functional, cell-based.
For data set [13], the system named is COLO 205. Nature of the data set: Induction of apoptosis in human COLO205 cells assessed as late apoptotic cells at IC50 after 24 hrs using Annexin-V-FITC staining by flow cytometer analysis (reference value: 0.07%). Format: functional.
Data set [14] deals with COLO 205. As to the kind of experiment: Cytotoxicity against human COLO205 cells after 24 hrs by MTT assay. Format: functional, cell-based. On the technique in general: Tetrazolium assays rely on reduction of a dye to a coloured formazan, in cell work by metabolically active cells.
Data set [15] relates to COLO 205. Nature of the data set: Induction of apoptosis in human COLO205 cells assessed as late apoptotic cells at IC50 after 48 hrs using Annexin-V-FITC staining by flow cytometer analysis (reference value: 6.5%). Format: functional.
Data set [16] relates to COLO 205. Nature of the data set: Induction of apoptosis in human COLO205 cells assessed as early apoptotic cells at IC50 after 48 hrs using Annexin-V-FITC staining by flow cytometer analysis (reference value: 0.3%). Format: functional.
Data set [17] has as its system COLO 205. As to the kind of experiment: Induction of apoptosis in human COLO205 cells assessed as activation of caspase-8 at IC50 after 48 hrs by Western blotting. Format: functional, cell-based.
Data set [18] relates to COLO 205. As to the kind of experiment: Induction of apoptosis in human COLO205 cells assessed as increase of p21 protein expression at IC50 after 48 hrs by Western blotting. Format: functional, cell-based.
Data set [19] relates to COLO 205. Nature of the data set: Induction of apoptosis in human COLO205 cells assessed as activation of caspase-9 at IC50 after 48 hrs by Western blotting. It counts as functional, cell-based.
The subject of data set [20] is COLO 205. Nature of the data set: Cytotoxicity against human COLO205 cells after 48 hrs by MTT assay. Format: functional, cell-based. As to conditions: for IC50: COLO 205, 48 h.
For data set [21], the system named is HepG2. Nature of the data set: Cytotoxicity against human HepG2 cells up to 100 uM after 24 to 48 hrs by MTT assay. Format: functional, cell-based.
The test system of data set [22] is HepG2. As to the kind of experiment: Induction of apoptosis in human HepG2 cells assessed as necrotic cells at IC50 after 48 hrs using Annexin-V-FITC staining by flow cytometer analysis (reference value: 1.5%). It counts as functional.
For data set [23], the system named is HepG2. Nature of the data set: Induction of apoptosis in human HepG2 cells assessed as increase of cleaved PARP level at IC50 after 48 hrs by Western blotting. It counts as functional, cell-based.
Data set [24] relates to HepG2. Nature of the data set: Induction of apoptosis in human HepG2 cells assessed as early apoptotic cells at IC50 after 48 hrs using Annexin-V-FITC staining by flow cytometer analysis (reference value: 0.6%). Format: functional.
For data set [25], the system named is HepG2. As to the kind of experiment: Induction of apoptosis in human HepG2 cells assessed as increase of Bax protein expression at IC50 after 48 hrs by Western blotting. It counts as functional, cell-based.
For data set [26], the system named is HepG2. As to the kind of experiment: Induction of apoptosis in human HepG2 cells assessed as viable cells at IC50 after 48 hrs using Annexin-V-FITC staining by flow cytometer analysis (reference value: 97.3%). Format: functional.
For data set [27], the system named is HepG2. Nature of the data set: Induction of apoptosis in human HepG2 cells assessed as increase of cleaved caspase 3/9 level at IC50 after 48 hrs by Western blotting. It counts as functional, cell-based.
For data set [28], the system named is HepG2. As to the kind of experiment: Induction of apoptosis in human HepG2 cells assessed as increase of cytochrome-c relase at IC50 after 48 hrs by Western blotting. It counts as functional, cell-based.
The test system of data set [29] is HepG2. Nature of the data set: Induction of apoptosis in human HepG2 cells assessed as increase of p53 and p21 protein expression at IC50 after 48 hrs by Western blotting. It counts as functional, cell-based.
Data set [30] relates to HepG2. As to the kind of experiment: Cytotoxicity against human HepG2 cells after 48 hrs by MTT assay. Format: functional, cell-based. As to conditions: HepG2, 48 h.
The test system of data set [31] is HepG2. Nature of the data set: Induction of apoptosis in human HepG2 cells assessed as decrease of Bcl2 protein expression at IC50 after 48 hrs by Western blotting. Format: functional, cell-based.
In data set [32] the test system is HepG2. Nature of the data set: Induction of apoptosis in human HepG2 cells assessed as late apoptotic cells at IC50 after 48 hrs using Annexin-V-FITC staining by flow cytometer analysis (reference value: 0.5%). It counts as functional.
The subject of data set [33] is HepG2. Nature of the data set: Cytotoxicity against human HepG2 cells after 24 to 48 hrs by MTT assay. Format: functional, cell-based.
The subject of data set [34] is HepG2. Nature of the data set: Cytotoxicity against human HepG2 cells. Format: functional.
The next data set relates to HeLa. Nature of the data set: Cytotoxicity against human HeLa cells. Format: functional.

For `Nc1n[nH]c2c3c(oc(=O)c12)-c1ccc2ccccc2c1OCC3`, the result in the data set on COLO 205 [1], in the data set on COLO 205 [2], in the data set with COLO 205 [8], with COLO 205 [11], with COLO 205 [12] and in the data set on COLO 205 [18] was Active. Also, the result in the data set on COLO 205 [19] was Active. The Activity in the data set with COLO 205 [3] is recorded as 54.7%; in the data set with COLO 205 [5], 1.7%; with COLO 205 [6] it was 5.5%; in data set [7] it was “Non-toxic”; with COLO 205 [9], 7%; with COLO 205 [10] it was 50.7%. The Activity with COLO 205 [13] is 7.5%; in the data set on COLO 205 [15], 8.6%; with COLO 205 [16] it was 0.2%; in the data set with COLO 205 [20], “Dose-dependent effect”. For the same compound, the result in the data set on COLO 205 [4], in the data set on COLO 205 [14] and in the data set on COLO 205 [17] was inactive. Besides, in the data set with COLO 205 [20], the IC50 is 20 µM.

Take `Nc1n[nH]c2c3c(oc(=O)c12)-c1cc(Cl)ccc1SC3`: the result with HepG2 [21] was inactive. In [7], the Activity result was “Non-toxic”.

With `Nc1n[nH]c2c1C(=O)NN=C1c3ccccc3OCCC12` (centres undefined), the Activity was 6.7% with HepG2 [22]; “Non-toxic” in data set [7]; 11.2% in the data set on HepG2 [24]; 74.5% with HepG2 [26]; 7.6% in the data set with HepG2 [32]; “Dose-dependent effect” in the data set on HepG2 [33]. Also, the outcome with HepG2 [23], in the data set with HepG2 [25], with HepG2 [27], with HepG2 [28], in the data set with HepG2 [29] and in the data set with HepG2 [31] was Active. Also, in the data set with HepG2 [30], the IC50 came to 60 µM.

Consider `CC(=O)c1c(O)c2ccc3ccccc3c2oc1=O`, for which the CC50 in the data set with HepG2 [34] and with HeLa was 6.87 mg/L (≈ 27 µM) each time.

`Nc1n[nH]c2c1C(=O)NN=C1c3cc(Cl)ccc3SCC12` (centres undefined): the result with HepG2 [21] was inactive. For the same compound, the Activity result in [7] is recorded as “Non-toxic”.

As for `Nc1n[nH]c2c3c(oc(=O)c12)-c1ccccc1OCC3`, the Activity with HepG2 [22] was 4.6%; in data set [7], “Non-toxic”; in the data set on HepG2 [24], 15.8%; with HepG2 [26] it was 70.4%; in the data set with HepG2 [32] it was 9.2%; with HepG2 [33] it was “Dose-dependent effect”. The result in the data set with HepG2 [23], in the data set with HepG2 [25], with HepG2 [27], in the data set with HepG2 [28], in the data set with HepG2 [29] and with HepG2 [31] was Active. Also, in the data set on HepG2 [30], the IC50 is 80 µM.

Turning to `Cc1cc2c(cc1C)-c1oc(=O)c3c(N)n[nH]c3c1CCO2`, the outcome in the data set with COLO 205 [1], in the data set on COLO 205 [2], with COLO 205 [8], in the data set with COLO 205 [11], in the data set on COLO 205 [12] and with COLO 205 [18] was Active. Besides, the result in the data set on COLO 205 [19] was Active. The outcome with HepG2 [21], with COLO 205 [4], in the data set on COLO 205 [14] and in the data set on COLO 205 [17] was inactive. Also, the Activity is listed as 50.6% in the data set on COLO 205 [3]; 0.7% in the data set on COLO 205 [5]; 9.4% in the data set on COLO 205 [6]; “Non-toxic” in [7]; 7.5% in the data set on COLO 205 [9]; 63.5% in the data set on COLO 205 [10]. The Activity in the data set on COLO 205 [13] is 4.3%; in the data set with COLO 205 [15], 4%; with COLO 205 [16], 0.1%; with COLO 205 [20], “Dose-dependent effect”. In addition, the half-maximal inhibitory concentration (IC50) in the data set on COLO 205 [20] came to 60 µM.

As to `Nc1n[nH]c2c3c(oc(=O)c12)-c1ccccc1SC3`, the result in the data set with HepG2 [21] was inactive. Besides, in data set [7], the Activity result was “Non-toxic”.

With `COc1ccc2c(c1)-c1oc(=O)c3c(N)n[nH]c3c1CCO2`, the outcome in the data set on COLO 205 [1], in the data set on COLO 205 [2], in the data set with COLO 205 [8], in the data set on COLO 205 [11], with COLO 205 [12] and in the data set on COLO 205 [18] was Active. Besides, in the data set on COLO 205 [19], the result was Active. Besides, the outcome in the data set on HepG2 [21], in the data set on COLO 205 [4], in the data set with COLO 205 [14] and with COLO 205 [17] was inactive. Also, the Activity with COLO 205 [3] is given as 33.6%; with COLO 205 [5], 0.2%; with COLO 205 [6], 16.7%; in data set [7] it was “Non-toxic”; in the data set on COLO 205 [9], 3%; in the data set with COLO 205 [10], 49.3%. The Activity with COLO 205 [13] was 9%; with COLO 205 [15], 7.7%; in the data set on COLO 205 [16], 0.3%; in the data set with COLO 205 [20] it was “Dose-dependent effect”. Moreover, the IC50 with COLO 205 [20] was determined as 40 µM.
